Test results: ChEMBL document CHEMBL3259683, “Carbonic anhydrase inhibitors. Inhibition of human cytosolic isoforms I and II with (reduced) Schiff's bases incorporating sulfonamide, carboxylate and carboxymethyl moieties” (Bioorg Med Chem, 2014)

Experiments:
Carbonic anhydrase 2 = Carbonic anhydrase 2 (Homo sapiens, UniProt P00918); experiment: Inhibition of human carbonic anhydrase 2-catalyzed CO2 hydration preincubated for 10 mins by stopped-flow assay
[1] = Solubility of the compound in water; assay type: physicochemical; conditions: buffer
Carbonic anhydrase 1 = Carbonic anhydrase 1 (Homo sapiens, UniProt P00915); experiment: Inhibition of human carbonic anhydrase 1-catalyzed CO2 hydration preincubated for 10 mins by stopped-flow assay
Homo sapiens = species: Homo sapiens; experiment: Selectivity ratio of Ki for human carbonic anhydrase 2 to Ki for human carbonic anhydrase 1

Sequence of Carbonic anhydrase 1 (P00915 whole entry): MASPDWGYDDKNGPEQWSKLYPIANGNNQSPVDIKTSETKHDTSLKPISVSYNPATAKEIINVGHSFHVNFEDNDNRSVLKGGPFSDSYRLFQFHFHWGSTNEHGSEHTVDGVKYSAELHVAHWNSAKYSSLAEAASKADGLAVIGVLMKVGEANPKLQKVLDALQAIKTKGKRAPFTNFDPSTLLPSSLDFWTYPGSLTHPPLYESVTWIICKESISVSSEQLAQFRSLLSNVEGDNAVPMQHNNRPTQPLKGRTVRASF

Structure (SMILES)	Ki (Carbonic anhydrase 2) [nM]	solubility [1]	Ki (Carbonic anhydrase 1) [nM]	Ratio Ki (Homo sapiens)
CC(C)(C)c1ccc(/C=N/CCc2ccc(S(N)(=O)=O)cc2)cc1	11.2	soluble	665	
NS(=O)(=O)c1ccc(/N=C/c2ccccc2)cc1		soluble	311	
NS(=O)(=O)c1ccc(CCNCc2ccc(O)cc2)cc1	236	soluble	92.1	
O=C(O)c1ccc(NCc2ccc(O)cc2)cc1		soluble	116	
O=C(O)c1ccc(/N=C/c2ccccc2)cc1		soluble	1230	
CC(C)(C)c1ccc(CNc2ccc(C(=O)O)cc2)cc1		soluble	266	
CC(C)(C)c1ccc(/C=N/c2ccc(C(=O)O)cc2)cc1		soluble	8270	
COC(=O)c1ccc(NCc2ccccc2)cc1		soluble	200	111
NS(=O)(=O)c1ccc(CC/N=C/c2ccccc2)cc1		soluble		
COC(=O)c1ccc(NCc2ccc(C(C)(C)C)cc2)cc1		soluble	251	
COC(=O)c1ccc(NCc2ccc(O)cc2)cc1		soluble	209	
COC(=O)c1ccc(/N=C/c2ccccc2)cc1		soluble	8600	
COC(=O)c1ccc(/N=C/c2ccc(C(C)(C)C)cc2)cc1		soluble	7460	
Cl.NS(=O)(=O)c1ccc(C/N=C/c2ccccc2)cc1		soluble	93	
COc1ccc(O)c(CNc2ccc(C(=O)O)cc2)c1		soluble	189	
COC(=O)c1ccc(/N=C/c2cc(OC)ccc2O)cc1		soluble	7450	
COC(=O)c1ccc(/N=C/c2ccc(O)cc2)cc1		soluble	1040	
NS(=O)(=O)c1ccc(CCNCc2ccccc2)cc1		soluble		
COC(=O)c1ccc(NCc2cc(OC)ccc2O)cc1		soluble	228	23
O=C(O)c1ccc(/N=C/c2ccc(O)cc2)cc1		soluble		
COc1ccc(O)c(/C=N/c2ccc(C(=O)O)cc2)c1		soluble	1290	
NS(=O)(=O)c1ccc(CC/N=C/c2ccc(O)cc2)cc1	43	soluble	105	

Other lines, results leading:

Ki (Carbonic anhydrase 2) [nM]	solubility [1]	Ki (Carbonic anhydrase 1) [nM]	Ratio Ki (Homo sapiens)	Structure (SMILES)
	soluble	85		CC(C)(C)c1ccc(/C=N/c2ccc(S(N)(=O)=O)cc2)cc1
12.6	soluble	70		COc1ccc(O)c(/C=N/CCc2ccc(S(N)(=O)=O)cc2)c1
	soluble	18.7		CC(C)(C)c1ccc(CNc2ccc(S(N)(=O)=O)cc2)cc1
	soluble	72		CC(C)(C)c1ccc(/C=N/Cc2ccc(S(N)(=O)=O)cc2)cc1.Cl
	soluble	56.7		O=C(O)c1ccc(NCc2ccccc2)cc1
	soluble	23.5		COc1ccc(O)c(CNc2ccc(S(N)(=O)=O)cc2)c1
11.1	soluble	80		NS(=O)(=O)c1ccc(/N=C/c2ccc(O)cc2)cc1
702	soluble	29		NS(=O)(=O)c1ccc(NCc2ccc(O)cc2)cc1
8.6	soluble	50.3		CC(C)(C)c1ccc(CNCCc2ccc(S(N)(=O)=O)cc2)cc1
	soluble	59.5		Cl.NS(=O)(=O)c1ccc(CNCc2ccc(O)cc2)cc1
	soluble	52		COc1ccc(O)c(/C=N/c2ccc(S(N)(=O)=O)cc2)c1
51.5	soluble	56		COc1ccc(O)c(CNCCc2ccc(S(N)(=O)=O)cc2)c1
	soluble	92		COc1ccc(O)c(/C=N/Cc2ccc(S(N)(=O)=O)cc2)c1.Cl
	soluble	25.5		CC(C)(C)c1ccc(CNCc2ccc(S(N)(=O)=O)cc2)cc1.Cl
	soluble	51.9		COc1ccc(O)c(CNCc2ccc(S(N)(=O)=O)cc2)c1.Cl
	soluble	30.3		Cl.NS(=O)(=O)c1ccc(CNCc2ccccc2)cc1
